Here are results for three molecules from patent US20100255994A1, “HERBICIDAL MIXTURE” (E.I. DU PONT DE NEMOURS AND COMPANY, priority 2007, published 2010).

The subject of this test is Digitaria nuda. In words: Test A: postemergence greenhouse weed control, visual rating. To be noted: 7 DAT. In kind it is in vivo. On the procedure:
Plastic pots (10-cm square) were filled to the rim with a sandy loam soil having pH of 6.1, 1.4% organic matter and a cation exchange capacity (CEC) of 5.7 milliequivalents per 100 grams (meq/100 g). The soil was tamped firm to a uniform level of 2.5 cm below the rim of each pot. A measured amount of seeds of Digitaria nuda were scattered on the soil surface. Seeded pots were covered with approximately 50 mL of the same planting soil and tamped. The pots were then placed in a greenhouse and watered thoroughly 2-3 times daily as needed. A balanced fertilizer solution was injected into the watering system to provide 218 ppm of nitrogen. Artificial lighting was used to supplement natural light to produce a 14 h photoperiod. Greenhouse temperatures were targeted for 28.8° C. in the day and 19.8° C. at night.
When the D. nuda plants reached the 3-4-leaf growth stage (8-12 cm height), the pots were sorted into test units for herbicide application. Treatments were replicated three times. The herbicides were diluted in a measured amount of water and then mixed using a magnetic stir bar for 10 minutes before aliquots were taken to make individual treatment solutions. Diuron was in the form of the DuPont product KARMEX, which is a wettable granule formulation containing 80 weight % active ingredient. Hexazinone was in the form of the DuPont product VELPAR DF, which is a wettable granule formulation containing 75 weight % active ingredient. A mixture of hexazinone and diuron in 11:39 weight ratio was in the form of the DuPont product VELPAR-K (VELPAR-K4) 60 WG, which is a wettable granule formulation containing 13.2 weight % hexazinone and 46.8 weight % diuron active ingredients. A mixture of hexazinone and diuron in 1:8 weight ratio was in the form of the DuPont product VELPAR-K8 (marketed in Brazil as ADVANCE Herbicide), which is a wettable granule formulation containing 6.7 weight % hexazinone and 53.3 weight % diuron active ingredients. Topramezone was in the form of the AMVAC product IMPACT, which is a suspension concentrate formulation containing 29.7% active ingredient. These products were applied alone and in combinations. Application rates of diuron and hexazinone were […] and 210 g ai ha^−1, respectively. The application rates of the VELPAR-K4 mixture of hexazinone and diuron (132 g a.i. hexazinone+468 g a.i. diuron/kg of formulated product) and VELPAR-K8 mixture of hexazinone and diuron (67 g a.i. hexazinone+533 g a.i. diuron kg of formulated product) were 1200 and 1800 g total a.i. ha^−1, respectively. Application rates of topramezone were 6, 12, 18 and 24 g a.i./ha. (“a.i.” means active ingredient.) The pots were then sprayed through a T-Jet 8002E nozzle using a stationary belt sprayer calibrated to deliver 281 L/ha at 276 kPa. Treatments were replicated three times.
The plants were returned to the greenhouse, and then control was visually evaluated relative to the control plants at 7 days after treatment (DAT). A numerical percent rating system was used to describe the response observed from each treatment on a scale of 0 to 100%, in which 0% indicates no response and 100% indicates plant death or near death. The reported results are the mean averages of the three replicates.
Colby's Equation was used to determine the herbicidal effects expected from the mixtures. Colby's Equation (Colby, S. R. “Calculating Synergistic and Antagonistic Responses of Herbicide Combinations,” Weeds, 15(1), pp 20-22 (1967)) calculates the expected additive effect of herbicidal mixtures, and for two active ingredients, or a pair of active ingredients (e.g., diuron+hexazinone) combined with an additional active ingredient (e.g., topramezone), is of the form: […]

`CN(C)c1nc(=O)n(C2CCCCC2)c(=O)n1C` [Hexazinone]: the “% Control Observed” value (hexazinone 210 g a.i./ha) stood at 12%.

In the case of `Cc1c(C(=O)c2cnn(C)c2O)ccc(S(C)(=O)=O)c1C1=NOCC1` [Topramezone], the “% Control Observed” value is 27% (topramezone 6 g a.i./ha, 3-4-leaf stage, mean of 3 replicates); 28% (topramezone 12 g a.i./ha); 33% (topramezone 18 g a.i./ha); 40% (topramezone 24 g a.i./ha).

With `CN(C)C(=O)Nc1ccc(Cl)c(Cl)c1` [Diuron, N′-(3,4-dichlorophenyl)-N,N-dimethylurea], the “% Control Observed” value (diuron 1800 g a.i./ha) stood at 20%.
